Like-named read-outs stand apart in the source and are kept apart here. Each block holds one compound with its values, some of them ahead of it.
Assays:
[1] = tested on: duodenal mCyp3a and drug efflux transporter mRNA expression; assay: qPCR of Cyp3a and efflux transporter mRNA in duodenum of VD3 sufficient vs deficient C57BL/6 mice; type: in vivo, mouse; conditions: n=3
Text: (§1) To generate VD3 deficient and sufficient mice, day 4–5 estrus (E5-E6) pregnant C57BL/6J female mice from Jackson Laboratories (Bar Harbor, ME) were kept on the VD3 deficient (Harlan catalog no. 5A69, 0 IU of vitamin D) and VD3 sufficient diets, (catalog. No. 5BV8, 3.3 IU of vitamin D) to develop vitamin D deficient and vitamin D sufficient mice, respectively. Pregnant dams were maintained on these diets throughout pregnancy, and after parturition, and pups were maintained on the corresponding diets after weaning as described in [16]. The pups were age matched and both male and female, VD3 deficient and VD3 sufficient mice were used for Cyp3a expression, pharmacokinetic and efficacy studies.
Mouse intestine (duodenum), liver and kidney tissues stored in RNA later at -20°C were used for RNA isolation. Trizol (Ambion Life technologies, CA, USA or Thermo Fisher scientific, CA, USA) was used to extract RNA according to the manufacturers protocol. Sterile Omni tips (OMNI International, GA, USA) were used to homogenize the tissue using Omni tissue homogenizer. 500 ng of RNA was used to generate cDNA using the Thermoscript™ RT-PCR system (Invitrogen ThermoFisher, CA, USA). The cDNA was diluted to a total volume of 70 μL. Primers used for the amplification: […]
Real-time PCR quantification was performed using SYBR GreenER™ qPCR supermix for ABI PRISM Instrument (Life Technologies, Grand Island, NY) according to manufacturer’s instructions. Samples were run at the following conditions: 95°C for 15 min, 40 cycles of 92°C for 30 sec, 60°C for 30 sec, 68°C for 1 min followed by a dissociation step. The relative amounts of mRNAs in each sample were normalized to Villin or Gapdh for intestine samples or Gapdh values for liver and kidney samples to control for quality of the mRNA. Comparative CT (ΔΔCt) method was used to determine quantitative PCR values.
Fig 1 Cyp and transporter gene expression in duodenum of VD3 sufficient and deficient mice. Influence of VD3 deficiency on duodenal mCyp3a11, mCyp3a13, mCyp3a44 (A,B) and drug efflux transporter mRNA expression (C,D) in 12 wk old C57BL/6 mice (A, C)) and hCYP3A4-tg mice (B,D) (male, n = 3 and female, n = 3/strain). Data are expressed as mean (bars) + SD (error bars) fold change in mRNA expression in deficient mice relative to each mRNAs expression in sufficient mice set as one. Villin was used as an internal control to normalize the target gene expression data. Mann-Whitney nonparametric test on GraphPad was used to determine significance between the groups (**p<0.01, *p<0.05).

[2] = no reference given, cited from earlier work
[3] = serum
Text: as §1
To observe the effect of vitamin D status on hCYP3A4 expression, cryopreserved hCYP3A4 transgenic (tg) mouse sperm was used to re-derive the humanized CYP3A4 transgenic mouse model. Human CYP3A4 transgenic mice were obtained from the laboratory of Dr. Frank Gonzalez (Laboratory of Metabolism, Center for Cancer Research, National Cancer Institute, National Institutes of Health, Bethesda). To generate hCYP3A4-Tg VD3 deficient and sufficient mice, E5-E6 hCYP3A4-Tg pregnant female mice were kept on VD3 deficient and VD3 sufficient diets throughout pregnancy and after parturition as described for C57BL/6J mice above. Pups were maintained on the corresponding diets after weaning and were euthanized at 12 weeks of age for tissue collection, blood was collected by cardiac puncture and serum was isolated and stored at -80°C. Tissues such as intestine (duodenum), liver and kidney were harvested and stored in RNA later at -20°C.
Serum samples from all animals in this manuscript were collected but only a few samples were randomly selected across studies and sent to the Veterinary Diagnostic Laboratory at Michigan State University (Lansing, MI) for serum 25-(OH) VD3 analysis.

[4] = female C57BL/6, VD3 deficient vs sufficient = 1, Villin
[5] = male C57BL/6, VD3 deficient vs sufficient = 1, Villin

Compound: C=C1CC[C@H](O)C/C1=C/C=C1\CCC[C@]2(C)[C@@H]([C@H](C)CCCC(C)C)CC[C@@H]12 [VD3, Vitamin D3]
avg fold chnge Cyp3a11 mRNA [1, 4]: 0.2614 fold
avg fold chnge cyp3a13 mRNA [1, 4]: 0.2206 fold
avg fold chnge cyp3a25 mRNA [1, 4]: 1.068 fold
avg fold chnge cyp3a44 mRNA [1, 4]: 0.139 fold
avg fold change Cyp3a11 mRNA ([1]; male C57BL/6, VD3 deficient (GCD) vs VD3 sufficient = 1, normalised to Villin): 0.299 fold
avg fold change Cyp3a13 mRNA [1, 5]: 0.1229 fold
avg fold change Cyp3a25 mRNA [1, 5]: 0.2366 fold
avg fold change Cyp3a41 mRNA [1, 5]: 0.2185 fold
avg fold change Cyp3a44 mRNA [1, 5]: 0.1467 fold
avg fold change bcrp mRNA [1, 5]: 0.5071 fold
avg fold change mPXR mRNA [1, 5]: 0.5697 fold
avg fold change mVDR mRNA [1, 5]: 0.3209 fold
avg fold change mdr1a mRNA [1, 5]: 0.5457 fold

Compound: C=C1/C(=C\C=C2/CCC[C@]3(C)[C@@H]([C@H](C)CCCC(C)(C)O)CC[C@@H]23)C[C@@H](O)C[C@@H]1O [1,25 (OH)2 VD3]
half-life ([2]; serum 1,25 (OH)2 VD3, biologically short lived): ~ 15 hours

Mean (25-(OH) VD3 ([3]; C57BL/6, VD3 Deficient, n=6): 12 nmol/L
Mean (25-(OH) VD3 ([3]; C57BL/6, VD3 Sufficient, n=2): 324.50 nmol/L
Mean (25-(OH) VD3 ([3]; hCYP3A4-tg, VD3 Deficient, n=4): 14.75 nmol/L
Mean (25-(OH) VD3 ([3]; hCYP3A4-tg, VD3 Sufficient, n=4): 219 nmol/L
Compound: C=C1CC[C@H](O)C/C1=C/C=C1\CCC[C@]2(C)[C@@H]([C@H](C)CCCC(C)(C)O)CC[C@@H]12 [25-(OH) VD3]
half-life ([2]; serum 25(OH)VD3): 15 days

— paper PMC8528301 (PLoS ONE, 2021)
